# Results taken from PubChem BioAssay AID264 (DTP/NCI, 2004).
# Where “and” joins values, the source holds several entries; their conditions need not be identical. Equal entries are not always repeated. Results filed as inconclusive are left out.
# Test system: nude mice, LX-1 lung xenograft intrarenal, tumor weight T/C
# Assay: NCI In Vivo Anticancer Drug Screen. Data for tumor model Human Lung LX-1 Xenograft (intrarenal inoculation) in NU/NU Swiss (nude) mice
# Details: endpoint: mean tumor weight change, higher = larger tumour
# Procedure: The antitumor activity of compounds was measured in mice bearing transplantable tumors. Survival or tumor size were measured and the results are expressed as the measurement made in the treated group (T) divided by the measurement made in the vehicle treated control group (C). The tumor model used in this assay is Human Lung LX-1 Xenograft (intrarenal inoculation) in NU/NU Swiss (nude) mice
# [1] = dose: 600.0 mg/kg/injection, schedule: Q04DX003 (sc), vehicle: suspension in saline
# [2] = dose: 1200.0 mg/kg/injection, schedule: Q04DX003 (sc), vehicle: suspension in saline
# [3] = dose: 2400.0 mg/kg/injection, schedule: Q04DX003 (sc), vehicle: suspension in saline
# [4] = dose: 75.0 mg/kg/injection, schedule: Q04DX003 (sc), vehicle: saline with Tween-80
# [5] = dose: 150.0 mg/kg/injection, schedule: Q04DX003 (sc), vehicle: saline with Tween-80
# [6] = dose: 300.0 mg/kg/injection, schedule: Q04DX003 (sc), vehicle: saline with Tween-80
# [7] = dose: 600.0 mg/kg/injection, schedule: Q04DX003 (sc), vehicle: saline with Tween-80
# [8] = dose: 2400.0 mg/kg/injection, schedule: Q04DX003 (sc), vehicle: saline with Tween-80
# [9] = dose: 300.0 mg/kg/injection, schedule: Q04DX003 (sc), vehicle: suspension in saline
# [10] = dose: 300.0 mg/kg/injection, schedule: Q04DX003 (sc), vehicle: saline
# [11] = dose: 600.0 mg/kg/injection, schedule: Q04DX003 (sc), vehicle: saline
# [12] = dose: 1200.0 mg/kg/injection, schedule: Q04DX003 (sc), vehicle: saline
# [13] = dose: 2400.0 mg/kg/injection, schedule: Q04DX003 (sc), vehicle: saline
# [14] = dose: 25.0 mg/kg/injection, schedule: Q01DX010 (sc), vehicle: Klucel (hydroxypropylcellulose) (HPC)
# [15] = dose: 300.0 mg/kg/injection, schedule: Q04DX003 (sc), vehicle: Klucel (hydroxypropylcellulose) (HPC)
# [16] = dose: 600.0 mg/kg/injection, schedule: Q04DX003 (sc), vehicle: Klucel (hydroxypropylcellulose) (HPC)
# [17] = dose: 1200.0 mg/kg/injection, schedule: Q04DX003 (sc), vehicle: Klucel (hydroxypropylcellulose) (HPC)
# [18] = dose: 2400.0 mg/kg/injection, schedule: Q04DX003 (sc), vehicle: Klucel (hydroxypropylcellulose) (HPC)
compound,measurement,setting,value
Cc1cc(NS(=O)(=O)c2ccc(N=Nc3cc(N=Nc4ccc(S(=O)(=O)Nc5cc(C)nc(C)n5)cc4)c4c(NC(=O)C(Cl)Cl)cccc4c3OC(=O)C(Cl)Cl)cc2)nc(C)n1 (tested in a mixture with another compound),T/C,[1],95 % of control
same,T/C,[2],115 % of control
same,T/C,[3],121 % of control
O=S1(=O)C=C(c2ccccc2)C(c2ccccc2)=C1,T/C,[4],59 % of control
same,T/C,[5],81 % of control
same,T/C,[6],59 % of control
same,T/C,[7],71 % of control
CCC(=O)Sc1ccccc1C(=O)Nc1ccc(Cl)cc1,T/C,[6],97 % of control
same,T/C,[7],91 % of control
same,T/C,[8],98 % of control
CCSC(=O)N1c2ccc(OC)cc2C=CC1C#N (configuration not stated),T/C,[8],32 % of control (2×) and 40 % of control
same,T/C,"dose: 4800.0 mg/kg/injection, schedule: Q04DX003 (sc), vehicle: saline with Tween-80",16 % of control and 17 % of control and 23 % of control
COC1C(/C=C/C(C)=O)OC2OC(C)(C)OC21 (configuration not stated),T/C,"dose: 75.0 mg/kg/injection, schedule: Q04DX003 (sc), vehicle: suspension in saline",52 % of control
same,T/C,"dose: 150.0 mg/kg/injection, schedule: Q04DX003 (sc), vehicle: suspension in saline",158 % of control
same,T/C,[9],123 % of control
OCC1OC(n2cnc3c(=S)nc[nH]c32)C(O)C1O (configuration not stated),T/C,"dose: 100.0 mg/kg/injection, schedule: Q01DX010 (sc), vehicle: saline",86 % of control
same,T/C,[10],75 % of control
same,T/C,[11],99 % of control
same,T/C,[12],124 % of control
same,T/C,[13],65 % of control
COC(=O)Nc1cccc(-c2nc3ccc(NC(=O)OC)cc3c(=O)n2-c2ccccc2)c1,T/C,[14],99 % of control
same,T/C,"dose: 50.0 mg/kg/injection, schedule: Q01DX010 (sc), vehicle: Klucel (hydroxypropylcellulose) (HPC)",160 % of control
same,T/C,"dose: 100.0 mg/kg/injection, schedule: Q01DX010 (sc), vehicle: Klucel (hydroxypropylcellulose) (HPC)",93 % of control
same,T/C,"dose: 200.0 mg/kg/injection, schedule: Q01DX010 (sc), vehicle: Klucel (hydroxypropylcellulose) (HPC)",84 % of control
CCN(Cc1ccc(Cl)c(Cl)c1)c1ccc2nc(N)nc(N)c2c1C,T/C,"dose: 37.5 mg/kg/injection, schedule: Q04DX003 (sc), vehicle: water",62 % of control
O=CC(NC(=O)N(CCCl)N=O)C(O)C(O)C(O)CO (configuration not stated),T/C,"dose: 1.5 mg/kg/injection, schedule: Q01DX010 (sc), vehicle: Klucel (hydroxypropylcellulose) (HPC)",208 % of control
same,T/C,"dose: 6.0 mg/kg/injection, schedule: Q01DX010 (sc), vehicle: Klucel (hydroxypropylcellulose) (HPC)",20 % of control and 45 % of control
same,T/C,"dose: 12.0 mg/kg/injection, schedule: Q01DX010 (sc), vehicle: Klucel (hydroxypropylcellulose) (HPC)",-23 % of control
COC1(OC)C2C=CC1CC2,T/C,[6],105 % of control
same,T/C,[7],150 % of control
same,T/C,"dose: 1200.0 mg/kg/injection, schedule: Q04DX003 (sc), vehicle: saline with Tween-80",104 % of control
COc1cc2c(ccc3c4cc(OC)c(OC)cc4c[n+](C)c23)cc1O,T/C,[10],107 % of control
same,T/C,[11],79 % of control
same,T/C,[12],46 % of control
same,T/C,[13],65 % of control
OC1CCCC2CCC[N-]C12.OC1CCCC2CCC[N-]C12.[Mn+2] (configuration not stated),T/C,[15],95 % of control
same,T/C,[16],52 % of control
same,T/C,[17],46 % of control
same,T/C,[18],63 % of control
O=C(/C=C(\Cl)C(=O)NO)NO,T/C,"dose: 100.0 mg/kg/injection, schedule: Q04DX003 (sc), vehicle: saline",103 % of control
CCCCCCOC(CN(C)C)C(Cl)(Cl)Cl (configuration not stated),T/C,"dose: 200.0 mg/kg/injection, schedule: Q04DX003 (sc), vehicle: saline with Tween-80",121 % of control
same,T/C,"dose: 400.0 mg/kg/injection, schedule: Q04DX003 (sc), vehicle: saline with Tween-80",95 % of control
same,T/C,"dose: 800.0 mg/kg/injection, schedule: Q04DX003 (sc), vehicle: saline with Tween-80",59 % of control
same,T/C,"dose: 1600.0 mg/kg/injection, schedule: Q04DX003 (sc), vehicle: saline with Tween-80",74 % of control
C[n+]1c(/C=C\C=C\N2CCCCC2)sc2ccccc21,T/C,"dose: 1.5 mg/kg/injection, schedule: Q04DX003 (sc), vehicle: Klucel (hydroxypropylcellulose) (HPC)",52 % of control
same,T/C,"dose: 3.0 mg/kg/injection, schedule: Q04DX003 (sc), vehicle: Klucel (hydroxypropylcellulose) (HPC)",83 % of control
[I][Hg][CH2]C1OCCOC1[CH2][Hg][I] (configuration not stated),T/C,"dose: 150.0 mg/kg/injection, schedule: Q04DX003 (sc), vehicle: Klucel (hydroxypropylcellulose) (HPC)",88 % of control
same,T/C,[15],74 % of control
same,T/C,[16],79 % of control
same,T/C,[17],64 % of control
CC(C)[C@](O)(C(=O)OCC1=CC[N+]2([O-])CC[C@@H](O)[C@@H]12)[C@H](C)O (some centres not stated),T/C,"dose: 50.0 mg/kg/injection, schedule: Q01DX010 (sc), vehicle: water",59 % of control
same,T/C,"dose: 100.0 mg/kg/injection, schedule: Q01DX010 (sc), vehicle: water",44 % of control
same,T/C,"dose: 200.0 mg/kg/injection, schedule: Q01DX010 (sc), vehicle: water",58 % of control
same,T/C,"dose: 400.0 mg/kg/injection, schedule: Q01DX010 (sc), vehicle: water",36 % of control
c1cc[c]([Sn]([NH]c2ncnc3[nH]cnc23)([NH]c2ncnc3[nH]cnc23)[c]2ccccc2)cc1,T/C,[9],85 % of control
same,T/C,[1],84 % of control
same,T/C,[2],82 % of control
same,T/C,[3],64 % of control
O=C1NCC(Br)C(=O)N1 (configuration not stated),T/C,[5],99 % of control
same,T/C,[6],90 % of control
COC(=O)Nc1nc2ccc(SC)cc2c(=O)[nH]1,T/C,[15],93 % of control
same,T/C,[16],93 % of control
same,T/C,[17],95 % of control
same,T/C,[18],92 % of control
C1CCC2OCCOCCOC3CCCCC3OCCOCCOC2C1 (configuration not stated),T/C,"dose: 9.38 mg/kg/injection, schedule: Q04DX003 (sc), vehicle: Klucel (hydroxypropylcellulose) (HPC)",170 % of control
same,T/C,"dose: 18.75 mg/kg/injection, schedule: Q04DX003 (sc), vehicle: Klucel (hydroxypropylcellulose) (HPC)",159 % of control
Nc1ccc2nc3ccc(N)cc3[n+](-c3ccccc3)c2c1,T/C,"dose: 36.0 mg/kg/injection, schedule: Q04DX003 (sc), vehicle: saline",110 % of control
same,T/C,"dose: 72.0 mg/kg/injection, schedule: Q04DX003 (sc), vehicle: saline",70 % of control
O=Cc1ccc(C(Cl)(Cl)Cl)cc1,T/C,"dose: 50.0 mg/kg/injection, schedule: Q01DX010 (sc), vehicle: saline with Tween-80",176 % of control
same,T/C,"dose: 200.0 mg/kg/injection, schedule: Q01DX010 (sc), vehicle: saline with Tween-80",179 % of control
same,T/C,"dose: 800.0 mg/kg/injection, schedule: Q01DX010 (sc), vehicle: saline with Tween-80",77 % of control
OCC1OC(n2cnc3c2NC=NC[C@H]3O)CC1O (some centres not stated),T/C,"dose: 1.0 mg/kg/injection, schedule: Q01DX010 (sc), vehicle: water",122 % of control
same,T/C,"dose: 2.0 mg/kg/injection, schedule: Q01DX010 (sc), vehicle: water",68 % of control and 70 % of control and 91 % of control
Nc1nc(N)c2c(ccc3c2ccn3Cc2cccc([N+](=O)[O-])c2)n1,T/C,"dose: 37.5 mg/kg/injection, schedule: Q04DX003 (sc), vehicle: saline with Tween-80",100 % of control
same,T/C,[4],69 % of control
same,T/C,[5],50 % of control
O=[N+]([O-])/C=C\c1ccc2c(c1)OCO2,T/C,"dose: 12.5 mg/kg/injection, schedule: Q01DX010 (sc), vehicle: Klucel (hydroxypropylcellulose) (HPC)",71 % of control
same,T/C,[14],94 % of control
same,T/C,"dose: 800.0 mg/kg/injection, schedule: Q01DX010 (sc), vehicle: Klucel (hydroxypropylcellulose) (HPC)",184 % of control
CCOC(=O)C(N)C[S][Sn]([CH3])([CH3])[Cl] (configuration not stated),T/C,"dose: 18.75 mg/kg/injection, schedule: Q04DX003 (sc), vehicle: saline",52 % of control
same,T/C,"dose: 37.5 mg/kg/injection, schedule: Q04DX003 (sc), vehicle: saline",57 % of control
same,T/C,"dose: 75.0 mg/kg/injection, schedule: Q04DX003 (sc), vehicle: saline",54 % of control
